According to the NIST ThermoML archive (doi:10.1016/j.tca.2014.04.012):
Numbers after ± are expanded uncertainties.

Settings: Crystal; visual observation

Normal melting temperature [°C] | Compound
310.00 ± 2 | CCN1C(=O)N(CC)C2NC(=O)NC21 (configuration not stated)
260.00 ± 2 | CN1C(=O)N(C)C2NC(=O)NC21 (configuration not stated)
